Assay results: patent US20110081297A1, “Novel Substituted Pyrazoles, 1,2,4-Oxadiazoles, and 1,3,4-Oxadiazoles” (priority 2008, published 2011)
pIC50: −log10 of the molar value.

Each molecule was assayed against human AD brain tissue homogenate (Homo sapiens, UniProt P05067) (assay: Tissue homogenate binding assay (competition with [3H]-DMAB)). Details: human AD brain (frontal cortex) homogenate, 1.5 nM [3H]-DMAB radioligand, room temperature, 90 minutes.
Protocol: PET radiotracer candidate compounds were then selected based on their high affinity competition with [^3H]-DMAB in binding to AD brain homogenates. These PET radiotracer candidate compounds were tested to determine if they were effective PgP substrates. Those PET radiotracer candidate compounds with little PgP substrate activity were radiolabeled with [^3H] or [^18F] and tested for binding affinity to human AD brain homogenates as well as binding to human non-AD brain homogenates and in autoradiographic studies using human AD and non-AD brain slices. Candidate radioligands were selected based on their strong binding affinity for human AD brain homogenates, and minimal binding to non-AD control homogenates. A low fraction of non-displaceable binding was also an important criterion. Minimization of white matter binding was an important criterion.
Postmortem frozen human brain samples from donors with clinical diagnosis of Alzheimer's diseases (AD) or normal control subjects (non-AD) were purchased from Analytical Biological Services Inc., at 701-4 Cornell Business Park, Wilmington, Del. 19801. Brain homogenates of frontal cortex were prepared, divided into aliquots and stored at −70° C. prior to use.
[^3H]-DMAB was synthesized at a specific activity of ˜80 Ci/mmol. The final concentration of radioligand for tissue homogenate binding assay was 1.5 nM. Brain homogenates were diluted with phosphate buffered saline (PBS) to 0.4 mg/mL from original 10 mg/mL volume and 200 μl was used in assay for a final concentration of […]. Unlabeled test compounds were dissolved in dimethylsulfoxide (DMSO) at 1 mM. Dilution of test compound to various concentrations was made with PBS containing 2% DMSO. Total binding was defined in the absence of competing compound, and non-displaceable binding was determined in the presence of 1 μM unlabeled self block. Compound dilutions (10×) were added into the assay tube (25 μL each/per tube, separately) containing 200 μL brain homogenate dilution, and the tubes were pre-incubated at room temperature for 10 minutes. Then radioligand dilutions (10×) were added into the assay tube (25 μl each/per tube, separately) to a final volume of 250 μL per tube. Incubation was carried out at room temperature (25° C.) for 90 minutes, and then the assay samples were filtered onto GF/C filters using Skatron 12 well harvester, washing on setting 5-5-5 (˜3×2 ml) ice cold buffer (PBS, pH 7.4). GF/C filter papers for the Skatron harvester were pre-soaked in 0.1% BSA for 1 hour at room temperature before use. Filters were punched into scintillation vials and counted in 2 mL Ultima Gold on Perkin Elmer Tri-Carb 2900TR for 1 minute. The data analysis was done with Prism software. […]

Sequence of human AD brain tissue homogenate (P05067 whole entry): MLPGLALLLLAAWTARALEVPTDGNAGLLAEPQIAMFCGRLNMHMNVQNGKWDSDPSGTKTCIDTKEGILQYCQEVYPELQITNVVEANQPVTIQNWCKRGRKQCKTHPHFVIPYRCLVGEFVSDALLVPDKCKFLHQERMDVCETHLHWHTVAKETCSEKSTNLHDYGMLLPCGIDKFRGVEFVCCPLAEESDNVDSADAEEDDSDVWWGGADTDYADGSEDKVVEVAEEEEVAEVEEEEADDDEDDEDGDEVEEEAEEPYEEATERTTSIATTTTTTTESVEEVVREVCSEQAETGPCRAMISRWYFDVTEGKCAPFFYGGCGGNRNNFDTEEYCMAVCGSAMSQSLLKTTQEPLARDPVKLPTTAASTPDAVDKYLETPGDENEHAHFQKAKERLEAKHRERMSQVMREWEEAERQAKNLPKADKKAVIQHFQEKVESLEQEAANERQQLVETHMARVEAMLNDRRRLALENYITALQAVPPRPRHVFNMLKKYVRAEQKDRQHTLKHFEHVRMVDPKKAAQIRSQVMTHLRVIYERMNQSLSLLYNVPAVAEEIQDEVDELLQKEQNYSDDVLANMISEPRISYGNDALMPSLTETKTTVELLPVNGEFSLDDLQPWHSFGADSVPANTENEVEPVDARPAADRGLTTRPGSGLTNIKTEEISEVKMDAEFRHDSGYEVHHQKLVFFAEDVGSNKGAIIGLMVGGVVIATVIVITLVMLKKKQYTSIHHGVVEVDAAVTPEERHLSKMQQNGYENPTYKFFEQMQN

Row | pIC50 | Compound
1 | 7.11 | COc1ccc(-c2noc(-c3cnc(F)c(C)c3)n2)cc1
2 | 8.00 | COc1ccc(-c2noc(-c3ccc4cc[nH]c4c3)n2)cc1
3 | 8.00 | COc1ccc(-c2cc(-c3ccc(N(C)C)cc3)n[nH]2)cc1
4 | 7.30 | CN(C)c1ccc(-c2cc(-c3cnc4[nH]ccc4c3)n[nH]2)cc1
